Test results from patent US20150072988A1, “USE OF N-(4-((3-(2-AMINO-4-PYRIMIDINYL)-2-PYRIDINYL)OXY)PHENYL)-4-(4-METHYL-2-THIENYL)-1-PHTHALAZINAMINE IN COMBINATION WITH HISTONE DEACETYLASE INHIBITORS FOR TREATMENT OF CANCER” (THE JOHNS HOPKINS UNIVERSITY, priority 2012, published 2015).

Tested on: phospho-histone H3
Experiment: Immunoblotting of phospho-histone H3 in prostate cells
Format: cell-based
Details: single agent treatment
Protocol: Prostate cancer cell lines (DU-145, LNCaP, PC3) were obtained from ATCC. Cells were grown in RPMI-1640 (Invitrogen) with 10% Fetal Bovine Serum (FBS) (Gemini) and maintained in a […] humidified incubator supplemented with 5% CO2. Sodium salt of VPA (Sigma-Aldrich) was prepared in RPMI at a 1M stock on the day of treatment of the cells. Vorinostat (SAHA) (AtonPharma) and AMG 900 (Amgen) were maintained in 10 mM DMSO stock solutions at −20° C. and diluted in RPMI upon use. For combination studies, compounds were administered concomitantly.
Western blotting was performed as described previously. Kachhap S K, Rosmus N, et al. “Downregulation of homologous recombination repair genes by HDAC inhibition in prostate cancer is mediated through the E2F1 transcription factor”, PLoS One 2010;5:e11208. Loading volumes equalized to 20 μg of total protein were used. Primary antibodies were diluted 1:1000 in blocking solution with the exceptions of vinculin and phosphorylated aurora A-C, which were diluted 1:4000 and 1:500, respectively. Conjugated secondary antibodies were diluted 1:4000 in blocking solution. For blocking solution 5% milk in TBST (100 mM Tris-HCl ph 7.4, 0.1% Tween20, 150 mM NaCl in H2O) was used for p21, cyclin B1, vinculin, cleaved PARP and all secondary antibodies; 5% BSA in TBST was used for the primary antibodies phosphorylated aurora, and phosphorylated and total H3. Blots were developed on film and scanned into a computer at 300 dots per inch (dpi). Densitometric analyses were performed using ImageJ (Research Services Branch, National Institute of Mental Health).

SMILES	expression of phospho-histone H3 (pH3)
Cc1csc(-c2nnc(Nc3ccc(Oc4ncccc4-c4ccnc(N)n4)cc3)c3ccccc23)c1 [AMG 900, N-(4-((3-(2-amino-4-pyrimidinyl)-2-pyridinyl)oxy)phenyl)-4-(4-methyl-2-thienyl)-1-phthalazinamine]	decreased
CCCC(CCC)C(=O)O [valproic acid]	decreased
O=C(CCCCCCC(=O)Nc1ccccc1)NO [vorinostat]	decreased
